Measured values as given in ChEMBL document CHEMBL1201862, “PubChem BioAssay data set” (2004).
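Results reflect a 48-hour exposure of cells in 96-well plates to compound at five concentrations. Here, GI50 denotes the concentration required for 50% inhibition of growth.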 The source made the active and inactive calls. Rule as the data show it: active = GI50 up to about 1.1 µM and inactive = higher.

Tests used:
Assay in all cases: NCI tumour cell line growth inhibition, 48 h
DMS-273 = system: DMS-273
M19-MEL = system: M19-MEL
HOP-18 = system: HOP-18
XF498 = system: XF498
KM-20L2 = system: KM-20L2
RXF 631 = system: RXF 631
LXFL 529 = system: LXFL 529
DMS-114 = system: DMS-114
SNB-78 = system: SNB-78

| Structure (SMILES) | GI50 (DMS-273) | GI50 (M19-MEL) | GI50 (HOP-18) | GI50 (XF498) | GI50 (KM-20L2) | GI50 (RXF 631) | GI50 (LXFL 529) | GI50 (DMS-114) | GI50 (SNB-78) |
| --- | --- | --- | --- | --- | --- | --- | --- | --- | --- |
| CCN(CC)CCSc1c2ccccc2nc2cc(NCC(=O)Nc3ccccc3-c3ccccc3NC(=O)CNc3ccc4c(SCCN(CC)CC)c5ccccc5nc4c3)ccc12 | > 34.7 µM (inactive) | 23 µM (inactive) | > 100 µM (inactive) | > 100 µM (inactive) | > 100 µM (inactive) | > 100 µM (inactive) | > 91 µM (inactive) | – | – |
| CC(C)(C)N1CC1CNC(=O)C(=O)NCC1CN1C(C)(C)C (centres undefined) | – | 1.26 µM (inactive) | 1.07 µM (active) | 0.526 µM (active) | 1.65 µM (inactive) | – | – | 0.603 µM (active) | – |
| C[C@@H]1OC2(O)[C@H]3CCCN3S(=O)(=O)CCN2C1=O (some centres undefined) | – | > 100 µM (inactive) | > 100 µM (inactive) | 0.0306 µM (active) | > 100 µM (inactive) | > 100 µM (inactive) | > 100 µM (inactive) | – | > 100 µM (inactive) |
| COc1cc([C@@H]2c3cc4c(c(O)c3C[C@H]3COC(=O)[C@@H]32)OCO4)cc(OC)c1OC [BETA-PELTATIN A] | 0.015 µM (active) | 0.0548 µM (active) | 1.26 µM (inactive) | 0.015 µM (active) | – | – | – | 0.015 µM (active) | 0.015 µM (active) |
| O=c1[nH]c(=O)n(C2CC(O)C(O)C(CO)O2)cc1F (centres undefined) | – | > 100 µM (inactive) | > 100 µM (inactive) | > 100 µM (inactive) | > 100 µM (inactive) | > 100 µM (inactive) | > 100 µM (inactive) | > 100 µM (inactive) | > 100 µM (inactive) |
| C1=C2/CC[C@H](Sc3ccccc3)C2C2(CCCCC/1)OCCO2 (some centres undefined) | 25.4 µM (inactive) | 15.6 µM (inactive) | 29.9 µM (inactive) | 22.7 µM (inactive) | 18.2 µM (inactive) | – | – | – | 39.4 µM (inactive) |
| O=c1c2ccccc2sc2nc(CCl)nn12 | 8.18 µM (inactive) | 19.7 µM (inactive) | – | – | 14.5 µM (inactive) | – | 19.5 µM (inactive) | 17.6 µM (inactive) | > 68.4 µM (inactive) |
| Cc1cccc(C(C)(C)C)c1NC(=O)C(=O)C(C(=O)/C=C\c1ccccc1)C1OC(=O)c2ccccc21 (centres undefined) | – | > 100 µM (inactive) | > 100 µM (inactive) | > 100 µM (inactive) | > 100 µM (inactive) | > 100 µM (inactive) | > 100 µM (inactive) | > 100 µM (inactive) | > 100 µM (inactive) |
| COC(=O)/C(=N\NC(=O)C[N+](C)(C)C)C(C(=O)OC)C(=O)C(=O)Nc1ccccc1C(N)=O (centres undefined) | > 100 µM (inactive) | > 100 µM (inactive) | > 100 µM (inactive) | – | > 100 µM (inactive) | – | > 100 µM (inactive) | – | > 100 µM (inactive) |
| CCCCCCCCCCCCCCCCCC(=O)Nc1ccn(C2OC(CO)C(O)C2O)c(=O)n1 (centres undefined) | 14.3 µM (inactive) | 5.69 µM (inactive) | > 100 µM (inactive) | – | 32.1 µM (inactive) | – | > 100 µM (inactive) | – | > 100 µM (inactive) |
| CN(C)c1ccc2c(=O)c3ccccc3oc2n1 | > 100 µM (inactive) | > 100 µM (inactive) | – | > 100 µM (inactive) | > 100 µM (inactive) | > 100 µM (inactive) | 84.3 µM (inactive) | 82.2 µM (inactive) | > 100 µM (inactive) |
| CN(C)c1ccc(/C=C2\CNC/C(=C\c3ccc(N(C)C)cc3)C2=O)cc1 | 12.7 µM (inactive) | 18.4 µM (inactive) | 18.9 µM (inactive) | 16.4 µM (inactive) | 30.1 µM (inactive) | 21.7 µM (inactive) | 37.4 µM (inactive) | 18.8 µM (inactive) | > 100 µM (inactive) |
| COc1cccc2c1C(=O)c1c(O)c3c(c(O)c1C2=O)C[C@@](O)(C(C)=O)C[C@@H]3OC1CC(N(C)C)C(O)C(C)O1 (some centres undefined) | 0.00964 µM (active) | 0.0213 µM (active) | 0.0859 µM (active) | 0.0001 µM (active) | 0.00603 µM (active) | – | 0.00684 µM (active) | 0.0475 µM (active) | 0.00873 µM (active) |
| COc1ccc(NC(=O)CSc2nnc(-c3ccc(/N=C\c4ccc(Cl)cc4)cc3)o2)cc1 | 26.8 µM (inactive) | 15 µM (inactive) | 12.5 µM (inactive) | 17.1 µM (inactive) | 39.6 µM (inactive) | – | 16.5 µM (inactive) | 15.2 µM (inactive) | 24.9 µM (inactive) |
| COC(=O)C(C(=O)C(=O)Nc1c(C)cccc1C)c1cnc2ccccc2n1 (centres undefined) | > 100 µM (inactive) | – | > 100 µM (inactive) | > 100 µM (inactive) | > 100 µM (inactive) | > 100 µM (inactive) | > 100 µM (inactive) | > 100 µM (inactive) | > 100 µM (inactive) |
| COc1ccc([Se]c2ccc(OC)cc2)cc1 | 92.5 µM (inactive) | 69.7 µM (inactive) | 27.9 µM (inactive) | > 100 µM (inactive) | 65.2 µM (inactive) | – | – | 29.1 µM (inactive) | – |
| COc1ccc2cc(C(=O)c3ccccc3C(=O)O)ccc2c1 | > 100 µM (inactive) | > 100 µM (inactive) | > 100 µM (inactive) | – | > 100 µM (inactive) | – | > 100 µM (inactive) | > 100 µM (inactive) | – |
| O=C(O)c1ccccc1NC(=O)C1CCCCC1 | > 100 µM (inactive) | > 100 µM (inactive) | – | > 100 µM (inactive) | > 100 µM (inactive) | > 100 µM (inactive) | > 100 µM (inactive) | > 100 µM (inactive) | > 100 µM (inactive) |
| Nc1ccc2c(c1)CN1C(=O)c3ccccc3C1=N2 [DANIQUIDONE] | 32.4 µM (inactive) | > 116 µM (inactive) | 108 µM (inactive) | – | 59 µM (inactive) | – | 82.8 µM (inactive) | 70.5 µM (inactive) | 25 µM (inactive) |
| COc1ccc(NC(=O)C(=O)Cc2nc3ccc([N+](=O)[O-])cc3nc2O)c(OC)c1 | > 100 µM (inactive) | > 100 µM (inactive) | 56.1 µM (inactive) | – | > 100 µM (inactive) | – | > 100 µM (inactive) | > 100 µM (inactive) | – |
| N#CCCN(CCC#N)c1ccc(C(=O)NN)cc1 | > 100 µM (inactive) | > 100 µM (inactive) | > 100 µM (inactive) | > 100 µM (inactive) | > 100 µM (inactive) | > 100 µM (inactive) | > 100 µM (inactive) | > 100 µM (inactive) | > 100 µM (inactive) |
| CC(=O)NC1C(=O)CC(c2ccccc2)N(C)C1c1ccccc1 (centres undefined) | > 100 µM (inactive) | > 100 µM (inactive) | – | – | > 100 µM (inactive) | > 100 µM (inactive) | > 100 µM (inactive) | > 100 µM (inactive) | > 100 µM (inactive) |
| CCCCCCCCCCCC(=O)OCC1OC(n2cc(F)c(=O)[nH]c2=O)C(NC(=O)OCc2ccccc2)C(OC(=O)CCCCCCCCCCC)C1O (centres undefined) | > 100 µM (inactive) | > 100 µM (inactive) | > 100 µM (inactive) | > 100 µM (inactive) | > 100 µM (inactive) | > 100 µM (inactive) | > 100 µM (inactive) | > 100 µM (inactive) | > 100 µM (inactive) |
